Key:
[1] = system: murine macrophages (RAW 264.7); assay type: cell-based
vaccinia virus [2] = assay type: cell-based
[3] = system: Bacillus anthracis Sterne strain; set-up: species or system DBA/2 mice; conditions: mouse, in vivo
human neutrophils [4] = assay type: cell-based; conditions: for IL-8 production by neutrophils: cytokine-stimulated, FIG. 12
human neutrophils [5] = assay type: cell-based; conditions: cytokine-treated neutrophils; donor-dependent; FIGS. 10 and 11
B. anthracis (Sterne) = system: B. anthracis (Sterne); set-up: species or system A/J mice; conditions: mouse, in vivo; for mice still alive: ip
[6] = system: primary murine splenocytes; set-up: species or system Balb/c mice; conditions: mouse, in vivo
[7] = system: Vaccinia virus (strain WR); set-up: species or system Balb/C mice; conditions: mouse, in vivo
VEE virus [8] = system: VEE virus; set-up: species or system mice; conditions: mouse, in vivo
Colon-26 cells = system: Colon-26 cells; set-up: species or system Balb/c mice; conditions: mouse, in vivo
VEE virus [9] = system: VEE virus; set-up: species or system mice; conditions: mouse, in vivo; remark: listed apart in the source
[10] = system: murine peritoneal exudate cells; set-up: species or system Balb/c mice; conditions: mouse, in vivo
murine PECs = assay type: cell-based, BALB/c mice
vaccinia virus [11] = assay type: in vivo

In the case of `CC(=O)O.CNC(=N)NCCC[C@H](N)C(=O)O` [L-NMA, N^G-monomethyl-L-arginine acetate, reference compound], the NO production [1] is reported as “inhibit NO production” and the VV replication (vaccinia virus [2]) is reported as “restored VV replication”.

For `O=C(O)c1cn(C2CC2)c2cc(N3CCNCC3)c(F)cc2c1=O` [ciprofloxacin], the survival [3] was 40%.

With GM-CSF the “IL-8 production by neutrophils” value (human neutrophils [4]) was “significantly increased”, the superoxide anion levels (human neutrophils [5]) was “increased superoxide anion levels” and the survival (B. anthracis (Sterne)) was “increased survival”. The mice still alive (B. anthracis (Sterne)) was 25% and the CD25 marker expression [6] was “significant activation”.

In the case of IFN-α, the mice remained alive [7] is reported as 95% and the mice still alive [7] is reported as 95%.

With IL-8: cytokine the superoxide anion levels (human neutrophils [5]) was “increased superoxide anion levels”.

With IL-12: cytokine the “reduction of VEE titers in the lungs compared to control animals” value (VEE virus [8]) was ~1.5 log10, the superoxide anion levels (human neutrophils [5]) was “increased superoxide anion levels” and the “cytolysis by NK/NKT cells” value (Colon-26 cells) was “significant increases”. The survival (B. anthracis (Sterne)) was “increased survival” and the “survival of lethally VEE-infected mice” value (VEE virus [9]) was “increased survival, but not significantly”.

With platelet activating factor [PAF] the “GM-CSF-induced IL-8 production” value (human neutrophils [4]; PAF added to GM-CSF, FIG. 13) was “enhances” and the “IL-8 production by neutrophils” value (human neutrophils [4]) was “increased IL-8 production moderately”.

B1: IFN-γ: cytokine interferon-gamma (protein, UniProt P01579 24-161, looked up)
Interferon gamma: QDPYVKEAENLKKYFNAGHSDVADNGTLFLGILKNWKEESDRKIMQSQIVSFYFKLFKNFKDDQSIQKSVETIKEDMNVKFFNSNKKKRDDFEKLTNYSVTDLNVQRKAIHELIQVMAELSPAAKTGKRKRSQMLFRG
B1 was tested, and the “reduction of VEE titers in the lungs compared to control animals” value (VEE virus [8]) was ~0.5 log10, the “nitric oxide production by PECs” value [10] was “significant increases” and the nitric oxide production [1] was “increased nitric oxide production dramatically”. The “increase of cell wall-induced nitric oxide production” value (murine PECs) was 10 to 20 µM, the mice remained alive [7] was 100% and the mice still alive [7] was 100%. The “protection against lethal VV (strain WR) challenge” value [7] was “complete protection”, the “effect of cytokine on cell wall-enhanced vaccinia virus clearance” value (vaccinia virus [2]) was “possible weak synergetic effect” and the “plaque forming units relative to cell wall treatment” value (vaccinia virus [2]) was “reduced the number of plaque forming units even further”. For the same molecule, the “reduction in VV titer” value (vaccinia virus [2]) was 95%, the superoxide anion levels (human neutrophils [5]) was “increased superoxide anion levels” and the “cytolysis by NK/NKT cells” value (Colon-26 cells) was “moderate increases”. The survival (B. anthracis (Sterne)) was “increased survival”, the mice still alive (B. anthracis (Sterne)) was 10% and the “vaccinia virus-induced cytopathic effect” value (vaccinia virus [11]) was “appeared to be reduced”. The “survival of lethally VEE-infected mice” value (VEE virus [9]) was “increased survival”.

— patent US20040018193A1 (priority 2002, published 2004)
